These results are taken from ChEMBL document CHEMBL1201862, “PubChem BioAssay data set” (2004).

The nature of experiment [1]: inhibition of bursicon-driven LGR2 cAMP signaling – cell-based, HEK293, CRE-luciferase reporter, cherry pick, dose response (AID 743342). The format is functional. On the technique in general: Reporter assays use an easily measured gene product as a stand-in for the process of interest.
The nature of experiment [2]: A549 cell cytotoxicity, dose response, cytotoxicity control, plate reader, cherry-pick, antagonist series (AID 743412). It is filed as functional, cell-based.
The nature of experiment [3]: viability loss in HEK293 cells – cell-based, plate reader, cherry-picked samples, cytotoxicity control, dose response (AID 743446). It is filed as functional.
Experiment [4] is described as follows: toxicity toward HepG2 liver cells – cell-based, plate reader, cherry-pick, antagonist series, cytotoxicity control, dose response (AID 743416). The format is functional.
Experiment [5] can be described thus: mouse embryonic fibroblast toxicity – cell-based, plate reader, dry powder, set 2, cytotoxicity control, dose response (AID 652280). It is filed as functional. Particulars: NIH3T3.
The nature of experiment [6]: T. cruzi growth inhibition in host cells, dose response, cell-based, plate reader, dry powder, set 2 (AID 652275). The format is functional.
Experiment [7] can be described thus: viability loss in MITF-independent A375 cells – cell-based, CellTiter-Glo luminescence, dry powder, set 2, counter-screen for MITF inhibitor project, dose response (AID 624489).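 Also: actives are compounds lowering A375 viability meaning general cytotoxicity.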 The format is functional. The following applies: A-375. In general terms: In ATP-based viability assays light output follows the ATP content of the culture.
The nature of experiment [8]: cytotoxicity in MITF-independent A375 cells – cell-based, CellTiter-Glo luminescence, dry powder, set 4, counter-screen for MITF inhibitor project, dose response (AID 624364).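 Also: A375 melanoma cells are MITF independent so this is a counter screen.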 The format is functional. The following applies: A-375.
Experiment [9] is described as follows: viability loss in HEK293 kidney cells – cell-based, cherry-picks, set 5, cytotoxicity control, dose response (AID 1053117). The format is functional.
Experiment [10] is described as follows: viability loss in A549 lung cancer cells – cell-based, cherry-picks, […], cytotoxicity control, dose response (AID 1053119). The format is functional.
Experiment [11] in a line: viability loss in HepG2 hepatoma cells – cell-based, cherry-picks, set 5, cytotoxicity control, dose response (AID 1053118). The format is functional.
Experiment [12] is described as follows: blockers of FN fibrillogenesis by fibroblasts – AH1F cells, Alexa488-FN fluorescence, cherry-picks, dose response (AID 1035475). The format is functional, cell-based.
A short description of experiment [13]: Late stage counterscreen for inhibitors of Trypanosoma brucei methionyl tRNA synthetase (MetRS): Luminescence-based cell-based high throughput dose response assay to identify compounds that are cytotoxic to Jurkat human T lymphocyte cells. It is filed as functional. Background: The purpose of a counterscreen is to sort out artefacts and off-target activity.

In experiment [14] the target is Disintegrin and metalloproteinase domain-containing protein 17 (Homo sapiens, UniProt P78536). The experiment is described as follows: inhibition of ADAM17 substrate cleavage – biochemical, quenched FRET substrate, counter-screen for ADAM10 exosite inhibitor project, dose response (AID 743253).
Sequence of Disintegrin and metalloproteinase domain-containing protein 17 (P78536 whole entry, the tested form may be a part): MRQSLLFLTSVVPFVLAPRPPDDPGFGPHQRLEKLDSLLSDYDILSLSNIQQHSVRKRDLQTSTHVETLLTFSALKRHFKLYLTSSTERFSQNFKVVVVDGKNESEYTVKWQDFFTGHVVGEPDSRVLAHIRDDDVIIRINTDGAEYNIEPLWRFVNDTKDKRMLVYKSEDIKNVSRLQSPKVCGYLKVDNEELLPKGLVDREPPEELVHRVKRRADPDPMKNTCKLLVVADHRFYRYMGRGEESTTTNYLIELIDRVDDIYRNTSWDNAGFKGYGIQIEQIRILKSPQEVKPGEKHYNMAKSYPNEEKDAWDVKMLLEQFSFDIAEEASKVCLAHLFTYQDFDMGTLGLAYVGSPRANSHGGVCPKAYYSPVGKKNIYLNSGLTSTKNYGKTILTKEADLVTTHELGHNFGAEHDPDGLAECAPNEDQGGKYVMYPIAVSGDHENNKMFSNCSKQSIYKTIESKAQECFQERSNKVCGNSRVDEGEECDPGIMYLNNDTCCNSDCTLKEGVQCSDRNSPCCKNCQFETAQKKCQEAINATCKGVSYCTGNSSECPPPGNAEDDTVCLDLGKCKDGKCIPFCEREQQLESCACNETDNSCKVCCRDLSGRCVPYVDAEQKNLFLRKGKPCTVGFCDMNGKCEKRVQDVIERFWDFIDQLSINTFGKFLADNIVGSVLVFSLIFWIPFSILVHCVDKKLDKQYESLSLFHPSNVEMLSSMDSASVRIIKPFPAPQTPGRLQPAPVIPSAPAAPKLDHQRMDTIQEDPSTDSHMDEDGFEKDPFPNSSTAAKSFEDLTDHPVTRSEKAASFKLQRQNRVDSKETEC
Another experiment deals with T1, Protein skinhead-1 (Caenorhabditis elegans, UniProt P34707).
T1 sequence (P34707 whole entry): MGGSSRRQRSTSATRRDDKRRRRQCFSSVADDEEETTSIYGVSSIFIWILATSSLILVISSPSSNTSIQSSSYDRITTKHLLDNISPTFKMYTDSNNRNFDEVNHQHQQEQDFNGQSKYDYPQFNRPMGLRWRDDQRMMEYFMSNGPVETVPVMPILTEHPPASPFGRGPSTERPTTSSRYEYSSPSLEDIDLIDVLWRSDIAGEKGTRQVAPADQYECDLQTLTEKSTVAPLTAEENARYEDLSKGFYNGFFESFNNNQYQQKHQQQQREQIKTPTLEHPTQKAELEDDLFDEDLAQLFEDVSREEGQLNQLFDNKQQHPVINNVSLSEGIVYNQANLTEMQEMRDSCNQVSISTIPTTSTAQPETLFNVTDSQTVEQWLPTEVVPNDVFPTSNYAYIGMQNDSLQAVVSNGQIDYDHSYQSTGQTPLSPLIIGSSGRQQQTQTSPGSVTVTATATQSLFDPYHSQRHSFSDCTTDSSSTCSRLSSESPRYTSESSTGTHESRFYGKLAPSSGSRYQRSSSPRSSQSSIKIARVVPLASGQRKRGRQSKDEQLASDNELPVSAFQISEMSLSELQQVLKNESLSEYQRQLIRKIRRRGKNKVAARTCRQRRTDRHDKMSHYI
The format is functional.

The target of experiment [15] is Peroxisome proliferator-activated receptor gamma/Nuclear receptor coactivator 1 (Homo sapiens, UniProt P37231). The experiment is described as follows: TR-FRET dose response biochemical High Throughput Screening assay for agonists of the steroid receptor coactivator 1 (SRC-1) recruitment by the peroxisome proliferator-activated receptor gamma (PPAR gamma): non-selective agonists. [Related pubchem assays (depositor defined):AID1300, AID1808, AID504735, AID631]. The format is protein assay.

The target in experiment [16] is Peroxisome proliferator-activated receptor gamma/Nuclear receptor coactivator 3 (Homo sapiens, UniProt P37231). The experiment is described as follows: TR-FRET dose response biochemical High Throughput Screening assay for agonists of the steroid receptor coactivator 3 (SRC-3) recruitment by the peroxisome proliferator-activated receptor gamma (PPAR gamma): non-selective agonists. [Related pubchem assays: 1301 (Confirmation screen.), 1048 (Primary screen.)]. The format is functional.

The nature of experiment [17]: potency of ADAM10 substrate cleavage blockers – biochemical, QFRET, dose response (AID 743254).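 Also: ADAM10 enzyme with the DM2 quenched FRET peptide as substrate; EDANS fluorescence gain as the protease cuts the substrate; inhibitor potency against ADAM10 proteolytic activity.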
Experiment [18] deals with Peroxisome proliferator-activated receptor gamma/Nuclear receptor coactivator 2 (Homo sapiens, UniProt P37231). The experiment is described as follows: TR-FRET dose response biochemical High Throughput Screening assay for agonists of the steroid receptor coactivator 2 (SRC-2) recruitment by the peroxisome proliferator-activated receptor gamma (PPAR gamma): non-selective agonists. [Related pubchem assays: 1297, 1032 ]. The format is functional.
Sequence of Peroxisome proliferator-activated receptor gamma/Nuclear receptor coactivator 2 (P37231 whole entry): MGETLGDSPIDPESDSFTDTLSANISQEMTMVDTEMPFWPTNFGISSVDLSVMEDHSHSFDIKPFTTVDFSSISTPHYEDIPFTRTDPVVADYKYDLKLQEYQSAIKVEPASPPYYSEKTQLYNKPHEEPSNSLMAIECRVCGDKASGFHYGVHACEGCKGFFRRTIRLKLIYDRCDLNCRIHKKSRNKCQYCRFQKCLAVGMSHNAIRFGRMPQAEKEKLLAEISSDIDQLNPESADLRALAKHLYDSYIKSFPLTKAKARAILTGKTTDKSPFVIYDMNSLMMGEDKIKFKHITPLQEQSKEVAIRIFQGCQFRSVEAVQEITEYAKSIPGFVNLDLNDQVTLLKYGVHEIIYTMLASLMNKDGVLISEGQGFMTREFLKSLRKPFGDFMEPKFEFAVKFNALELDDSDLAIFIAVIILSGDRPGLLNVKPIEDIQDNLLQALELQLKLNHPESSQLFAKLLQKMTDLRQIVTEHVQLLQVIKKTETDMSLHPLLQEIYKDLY
Sequence of Peroxisome proliferator-activated receptor gamma/Nuclear receptor coactivator 2 (Q15596 whole entry, further chain): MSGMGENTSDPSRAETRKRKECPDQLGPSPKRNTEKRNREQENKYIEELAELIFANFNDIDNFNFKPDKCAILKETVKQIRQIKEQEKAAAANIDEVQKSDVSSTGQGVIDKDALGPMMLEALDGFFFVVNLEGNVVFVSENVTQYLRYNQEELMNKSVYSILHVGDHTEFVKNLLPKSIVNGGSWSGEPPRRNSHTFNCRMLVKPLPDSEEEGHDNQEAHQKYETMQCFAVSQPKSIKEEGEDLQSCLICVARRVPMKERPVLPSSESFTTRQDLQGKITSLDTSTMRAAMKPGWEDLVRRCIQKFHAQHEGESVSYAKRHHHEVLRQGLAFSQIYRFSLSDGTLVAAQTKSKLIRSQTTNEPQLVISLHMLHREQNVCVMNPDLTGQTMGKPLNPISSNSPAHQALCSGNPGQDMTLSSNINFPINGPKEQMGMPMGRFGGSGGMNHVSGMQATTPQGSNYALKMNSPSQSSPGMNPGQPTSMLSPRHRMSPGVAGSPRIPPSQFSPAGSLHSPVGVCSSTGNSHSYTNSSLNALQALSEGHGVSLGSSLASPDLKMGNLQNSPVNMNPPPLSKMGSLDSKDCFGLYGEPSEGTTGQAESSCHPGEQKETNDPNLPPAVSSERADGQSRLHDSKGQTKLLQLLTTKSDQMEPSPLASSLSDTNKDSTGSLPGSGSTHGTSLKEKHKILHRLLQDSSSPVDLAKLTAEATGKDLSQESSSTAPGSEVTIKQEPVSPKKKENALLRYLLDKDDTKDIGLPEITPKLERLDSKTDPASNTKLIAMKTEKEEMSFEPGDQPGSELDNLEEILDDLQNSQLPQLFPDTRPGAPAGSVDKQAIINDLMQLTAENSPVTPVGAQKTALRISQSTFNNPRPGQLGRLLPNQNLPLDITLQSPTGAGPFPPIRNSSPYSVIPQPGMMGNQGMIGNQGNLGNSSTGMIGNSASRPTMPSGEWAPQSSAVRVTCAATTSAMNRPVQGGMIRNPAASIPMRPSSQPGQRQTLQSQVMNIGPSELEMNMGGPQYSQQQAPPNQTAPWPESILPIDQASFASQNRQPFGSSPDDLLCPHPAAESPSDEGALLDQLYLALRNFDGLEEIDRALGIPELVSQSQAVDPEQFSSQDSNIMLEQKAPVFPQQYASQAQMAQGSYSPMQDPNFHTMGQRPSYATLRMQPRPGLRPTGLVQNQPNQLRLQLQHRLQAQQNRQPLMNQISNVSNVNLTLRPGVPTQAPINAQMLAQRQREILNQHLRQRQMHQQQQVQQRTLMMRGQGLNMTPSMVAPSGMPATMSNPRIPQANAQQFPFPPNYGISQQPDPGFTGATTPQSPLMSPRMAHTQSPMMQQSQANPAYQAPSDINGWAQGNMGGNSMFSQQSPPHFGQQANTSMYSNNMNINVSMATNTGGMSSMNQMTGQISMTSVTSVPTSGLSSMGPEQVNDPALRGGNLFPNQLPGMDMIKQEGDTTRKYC

The nature of experiment [19]: cervical cancer cell viability loss – HeLa, 24 h, plate reader, powder samples, set 3, cytotoxicity control, dose response (AID 651864). It is filed as functional, cell-based.
Experiment [20] can be described thus: PAX8-dependent cell viability loss – plate reader, dry powder, dose response (AID 743049). The format is functional, cell-based.
The nature of experiment [21]: PAX5 cellular inhibition readout – cell-based, plate reader, dry powder samples, selectivity assay for PAX8 inhibitor project, dose response (AID 743047).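 Also: HEK293 cells carrying a Pax5 driven CD19 promoter luciferase reporter; potency of inhibitors that lower reporter luminescence.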 The format is functional.
Experiment [22] can be described thus: OV-90 cell viability loss – plate reader, dry powder, SA8, PAX8 inhibitor project, dose response (AID 743149). It is filed as functional, cell-based.
Another experiment has as its target Paired box protein Pax-8 (Homo sapiens, UniProt Q06710). The experiment in a line: PAX8 transcriptional activity inhibition in RMG-I – RMG-I cells, luciferase, cherry-pick, dose response (AID 687027).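 Also: luciferase reporter driven by Pax8 target thyroperoxidase promoter measured by SteadyGlo luminescence.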 It is filed as functional, cell-based.
Experiment [23] is described as follows: inhibitors acting on PAX2 in cells – cell-based, plate reader, dry powder samples, selectivity assay for PAX8 inhibitor project, dose response (AID 743048).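 Also: HEK293 cells carrying a WT1 promoter luciferase reporter driven by expressed Pax2; potency is for inhibition of Pax2 driven reporter signal.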 The format is functional.
A further experiment deals with Vero. The experiment is described as follows: viability loss in Vero cells – cell-based, plate reader, cherry-pick samples, cytotoxicity control, dose response (AID 687020). It is filed as functional. Particulars: Chlorocebus sabaeus.
Experiment [24] in a line: OVCAR8 cell viability loss – plate reader, dry powder samples, PAX8 project, dose response (AID 743197). The following applies: OVCAR-8. It is filed as functional, cell-based.
Experiment [25] is described as follows: toxicity toward immortalized ovarian surface epithelium – cell-based, plate reader, dry powder samples, cytotoxicity control for PAX8 inhibitor project, dose response (AID 743045). The format is functional.
The nature of experiment [26]: OVCAR-3 cell viability loss – plate reader, dry powder samples, PAX8 inhibitor project, dose response (AID 743044). It is filed as functional, cell-based.

Activity calls are given as the source filed them. Where only a bound is given, the exact number is not on record here.

Sequence of Paired box protein Pax-8 (Q06710 whole entry): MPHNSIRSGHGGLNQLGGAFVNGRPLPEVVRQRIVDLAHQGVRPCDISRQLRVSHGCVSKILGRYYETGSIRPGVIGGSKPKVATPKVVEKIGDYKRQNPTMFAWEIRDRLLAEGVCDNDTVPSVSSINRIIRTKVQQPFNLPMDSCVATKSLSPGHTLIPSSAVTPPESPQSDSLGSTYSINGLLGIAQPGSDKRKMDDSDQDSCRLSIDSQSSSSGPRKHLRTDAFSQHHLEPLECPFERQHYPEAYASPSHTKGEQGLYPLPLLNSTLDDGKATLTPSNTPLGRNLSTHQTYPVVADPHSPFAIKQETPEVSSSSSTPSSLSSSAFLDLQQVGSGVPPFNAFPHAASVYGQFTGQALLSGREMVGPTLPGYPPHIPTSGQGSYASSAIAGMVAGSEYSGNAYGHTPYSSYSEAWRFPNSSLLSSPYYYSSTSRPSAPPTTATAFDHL

In general, AC50 refers to the midpoint of the concentration-response curve, whichever way the signal moves. Consider `C[C@H]1CCCCO[C@@H](CN(C)C(=O)Nc2ccc(C(F)(F)F)cc2)[C@@H](C)CN([C@@H](C)CO)C(=O)c2cc(NC(=O)CCC(F)(F)F)ccc2O1`, for which the AC50 is 4.55 µM (active) in [1], 31 µM (active) in experiment [2], > 52 µM (inactive) in [3] and > 52 µM (inactive) in experiment [4].

As to `O=C(C1CC1)N1CCCCN2[C@@H](CO)[C@H](c3ccc(-c4cccc(F)c4)cc3)[C@@H]2C1`, the concentration at half-maximal activity (AC50) is 26.7 µM (active) in [5] and 0.312 µM (active) in experiment [6].

For the compound `C=CCNC1=C(N(C)C(C)=O)C(=O)c2ccccc2C1=O`, the AC50 is 2.59 µM (active) in [7] and 8.92 µM (active) in experiment [8].

`CO[C@@H]1CN(C)C(=O)c2ccc(NC(=O)Nc3ccc(Cl)c(Cl)c3)cc2OC[C@@H](C)NC[C@@H]1C`: the half-maximal activity concentration (AC50) in experiment [9] is 20.4 µM (active); in [10], 13.1 µM (active); in [11], 24.2 µM (active); in experiment [12], 36.8 µM (active).

As usually defined, the IC50 is the point on the concentration scale where inhibition reaches its midpoint. `O=C(CCC(=O)Nc1cccc([N+](=O)[O-])c1)NN=Cc1cccs1`: in experiment [13], the IC50 is > 83.3 µM (inactive).

By EC50 is commonly meant the concentration that produces a half-maximal response. For the compound `COc1ccc2nc(SCC(=O)Nc3ccc(S(=O)(=O)N4CCCC4)cc3)c(C#N)cc2c1`, the IC50 in [14] is > 69.5 µM (inactive); at Protein skinhead-1 it was > 100 µM (inactive); in [17], > 69.5 µM (inactive). The values for the EC50 in [15], in experiment [16] and in [18] were 7.32 µM (active), > 26.5 µM (not active) and 7.11 µM (active), respectively.

On to `CCn1nccc1NCc1ccc(N2CCCC2)cc1`, for which, in [19], the AC50 is > 160 µM (inactive).

For the compound `C[C@H]1CN([C@@H](C)CO)C(=O)Cc2cc(NC(=O)NC3CCCCC3)ccc2O[C@@H]1CN(C)Cc1ccc(-c2ccccc2)cc1`, the AC50 in experiment [20] is > 70 µM (inactive); in experiment [21], 20.8 µM (active); in [22], > 70 µM (inactive); at Paired box protein Pax-8, 14.5 µM (active); in [23], 19.3 µM (active).

For the compound `C[C@@H]1CCCCO[C@H](CN(C)Cc2ccc(C(F)(F)F)cc2)[C@H](C)CN([C@@H](C)CO)C(=O)c2cc(NC(=O)c3ccccc3)ccc2O1`, the AC50 with Vero was 28.7 µM (active); in experiment [24], 17.8 µM (active); in experiment [25], 42.4 µM (active); in experiment [26], 33.2 µM (active); on Paired box protein Pax-8, 19.1 µM (active).
